Results published in US20240246948A1, “BENZAMIDE DERIVATIVE, METHOD FOR PREPARING SAME, AND PHARMACEUTICAL COMPOSITION FOR PREVENTION OR TREATMENT OF CANCER CONTAINING SAME AS ACTIVE INGREDIENT” (HK INNO.N CORPORATION, priority 2021, published 2024).

Key:
[1] = molecular target: Ba/F3 EGFR L858R/T790M/C797S (LTC) (Homo sapiens, UniProt P00533, T790M/C797S/L858R, cells depend on it); experiment: Cell growth inhibitory ability in Ba/F3 cells overexpressing EGFR L858R/T790M/C797S (MTS, CellTiter 96 AQueous); type: cell-based; conditions: 72 hours, MTS absorbance at 490 nm, read-out: Ba/F3 EGFR triple mutant L858R/T790M/C797S, IC50
Method: (§1) In order to confirm that the compound represented by formula 1 provided in one aspect of the present invention acts as an allosteric inhibitor against WT and mutant of EGFR, the cell growth inhibitory effect was evaluated in BaF3 cells overexpressing WT and mutant of EGFR.
(§2) More specifically, the cell growth inhibitory ability of the compound of the present invention to the Ba/F3 cell line overexpressing WT and mutant of EGFR was evaluated using CellTiter 96 AQueous Non-Radioactive Cell Proliferation Assay system of Promega, as follows. AQueous Non-Radioactive Cell Proliferation Assay is a method of confirming cell growth inhibitory ability by measuring the degree of color development by reducing MTS (3-(4,5-Dimethylthiazol-2-yl)-5-(3-carboxymethoxyphenyl)-2-(4-sulfophenyl)-2H-tetrazolium) to Formazan by a reductase secreted by mitochondria present in living cells in a cell culture state. The Ba/F3 EGFR WT and Ba/F3 EGFR del19/T790M/C797S (DTC), Ba/F3 EGFR L858R (L), Ba/F3 EGFR L858R/T790M (LT), and Ba/F3 EGFR L858R/T790M/C797S (LTC) mutation cell lines used in the present invention were purchased from the laboratory of Professor Byung-cheol Cho, Yonsei University. All cell lines were cultured in RPMI supplemented with 10% FBS, 1% penicillin-streptomycin and 1 μg/ml of puromycine in a 5% CO2 incubator at 37° C.
(§3) The cell survival inhibitory effect of the compound according to each EGFR mutation was analyzed by the following analysis method.
(§4) BaF3 cells were distributed in a 96-well cell culture plate at the density of 2000˜10000 cells/100 μL/well, and cultured for 24 hours. Thereafter, the concentration of the compound represented by formula 1 provided in one aspect of the present invention was prepared to double the final concentrations of 0.1 nM, 1 nM, 10 nM, 100 nM, 1000 nM and 10000 nM, and the compound was treated to the plate (100 μL/well). The plate was reacted in an incubator at 37° C. for 72 hours. Then, MTS was treated to the plate (20 μL/well) and the plate was incubated at 37° C. for 2 to 4 hours. Finally, after measuring the absorbance at 490 nm using a microplate reader, the relative value compared to 0 nM (% Control) was obtained to confirm the cell growth inhibitory ability of the compound. The measured values were analyzed using Prism program (version 8.0, Graphpad Software, Inc.), and the IC50 value (Inhibition concentration 50), an indicator of the cell growth inhibitory ability of the compound, was calculated.

[2] = molecular target: Ba/F3 EGFR L858R/T790M (LT) (Homo sapiens, UniProt P00533, T790M/L858R, cells depend on it); experiment: Cell growth inhibitory ability in Ba/F3 cells overexpressing EGFR L858R/T790M (MTS, CellTiter 96 AQueous); type: cell-based; conditions: 72 hours, MTS absorbance at 490 nm, read-out: Ba/F3 EGFR double mutant L858R/T790M, IC50
Method: as §1, §2, §3, §4

Chain of Ba/F3 EGFR L858R/T790M (LT) (P00533 whole entry T790M/L858R): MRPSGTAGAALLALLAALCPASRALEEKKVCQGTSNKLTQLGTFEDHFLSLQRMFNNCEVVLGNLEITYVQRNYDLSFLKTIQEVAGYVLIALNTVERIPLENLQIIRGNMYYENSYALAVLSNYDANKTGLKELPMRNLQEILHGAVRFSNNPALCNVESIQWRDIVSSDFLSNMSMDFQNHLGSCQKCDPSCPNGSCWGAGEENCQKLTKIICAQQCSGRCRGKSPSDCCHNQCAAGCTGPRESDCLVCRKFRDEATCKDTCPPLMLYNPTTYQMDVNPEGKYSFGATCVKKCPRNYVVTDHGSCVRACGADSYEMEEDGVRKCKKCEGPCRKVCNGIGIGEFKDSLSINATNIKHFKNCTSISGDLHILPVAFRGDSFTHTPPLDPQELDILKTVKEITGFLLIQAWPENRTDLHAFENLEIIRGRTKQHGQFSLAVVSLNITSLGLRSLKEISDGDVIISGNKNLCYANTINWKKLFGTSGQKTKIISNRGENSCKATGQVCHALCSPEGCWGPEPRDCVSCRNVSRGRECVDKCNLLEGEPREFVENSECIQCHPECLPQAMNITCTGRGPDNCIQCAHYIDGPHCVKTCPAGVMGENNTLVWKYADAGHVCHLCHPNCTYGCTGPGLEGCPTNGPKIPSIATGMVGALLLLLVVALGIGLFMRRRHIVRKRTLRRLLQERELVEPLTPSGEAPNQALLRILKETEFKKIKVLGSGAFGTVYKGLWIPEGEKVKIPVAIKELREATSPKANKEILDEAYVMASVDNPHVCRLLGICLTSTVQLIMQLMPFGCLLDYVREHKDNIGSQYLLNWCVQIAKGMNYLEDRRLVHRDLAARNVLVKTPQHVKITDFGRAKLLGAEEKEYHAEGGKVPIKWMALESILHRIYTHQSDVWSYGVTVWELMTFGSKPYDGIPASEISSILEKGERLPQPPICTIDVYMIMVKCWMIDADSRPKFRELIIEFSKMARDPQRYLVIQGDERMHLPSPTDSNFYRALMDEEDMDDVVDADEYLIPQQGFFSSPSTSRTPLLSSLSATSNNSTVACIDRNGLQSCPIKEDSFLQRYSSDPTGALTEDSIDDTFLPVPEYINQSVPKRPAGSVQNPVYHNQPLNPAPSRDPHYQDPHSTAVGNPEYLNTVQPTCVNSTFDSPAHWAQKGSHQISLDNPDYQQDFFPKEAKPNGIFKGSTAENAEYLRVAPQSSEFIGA
Chain of Ba/F3 EGFR L858R/T790M/C797S (LTC) (P00533 whole entry T790M/C797S/L858R): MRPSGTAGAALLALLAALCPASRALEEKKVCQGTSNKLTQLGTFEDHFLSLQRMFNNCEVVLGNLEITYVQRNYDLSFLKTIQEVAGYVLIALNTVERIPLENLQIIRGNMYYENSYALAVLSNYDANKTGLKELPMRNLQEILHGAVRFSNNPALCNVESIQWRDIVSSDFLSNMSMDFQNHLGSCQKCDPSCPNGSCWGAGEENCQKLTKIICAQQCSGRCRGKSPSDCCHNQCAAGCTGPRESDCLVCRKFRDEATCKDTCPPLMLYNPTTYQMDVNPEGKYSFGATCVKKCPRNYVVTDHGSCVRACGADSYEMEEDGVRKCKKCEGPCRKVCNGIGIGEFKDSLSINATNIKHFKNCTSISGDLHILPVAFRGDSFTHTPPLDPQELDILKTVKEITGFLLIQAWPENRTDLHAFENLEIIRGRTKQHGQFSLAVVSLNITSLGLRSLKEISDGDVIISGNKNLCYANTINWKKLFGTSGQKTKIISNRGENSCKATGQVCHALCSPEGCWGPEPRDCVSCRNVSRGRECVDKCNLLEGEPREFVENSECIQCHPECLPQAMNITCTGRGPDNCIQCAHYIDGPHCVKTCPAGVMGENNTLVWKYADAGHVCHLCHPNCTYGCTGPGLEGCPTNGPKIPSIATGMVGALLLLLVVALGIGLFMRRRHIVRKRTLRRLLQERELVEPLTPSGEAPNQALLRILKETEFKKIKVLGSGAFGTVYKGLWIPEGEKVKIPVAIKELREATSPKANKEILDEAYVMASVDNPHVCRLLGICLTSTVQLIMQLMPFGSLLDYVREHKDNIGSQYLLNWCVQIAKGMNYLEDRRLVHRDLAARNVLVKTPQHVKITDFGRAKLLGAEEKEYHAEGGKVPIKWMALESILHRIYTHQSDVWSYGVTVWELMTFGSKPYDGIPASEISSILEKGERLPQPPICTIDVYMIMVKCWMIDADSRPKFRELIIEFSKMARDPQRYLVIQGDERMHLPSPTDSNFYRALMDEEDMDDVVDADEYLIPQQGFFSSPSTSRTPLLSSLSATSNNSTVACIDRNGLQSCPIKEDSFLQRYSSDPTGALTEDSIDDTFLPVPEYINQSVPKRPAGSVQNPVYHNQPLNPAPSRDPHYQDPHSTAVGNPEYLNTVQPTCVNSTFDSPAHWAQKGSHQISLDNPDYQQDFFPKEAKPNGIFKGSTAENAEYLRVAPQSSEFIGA

Compound	GI50 [1] [nM]	GI50 [2] [nM]
NC1CCN(c2ccc(-c3cc(C(=O)N[C@@H](c4cc5ccccc5[nH]4)c4cc(F)ccc4O)cc([N+](=O)[O-])c3)cc2)CC1 [Example 7, 4′-(4-aminopiperidine-1-yl)-N-((5-fluoro-2-hydroxyphenyl)(1H-indole-2-yl)methyl)-5-nitro-[1,1′-biphenyl]-3-carboxamide]	> 200	> 200
Cc1cc(C(=O)N[C@@H](c2cc3ccccc3[nH]2)c2cc(F)ccc2O)cc(-c2ncc(N3CCN(C)CC3)cn2)c1 [Example 37, (R)—N-((5-fluoro-2-hydroxyphenyl)(1H-indole-2-yl)methyl)-3-methyl-5-(5-(4-methylpiperazine-1-yl)pyrimidine-2-yl)benzamide]	< 30	30 to 200
CC(C)(C)c1cc(C(=O)N[C@@H](c2cc3ccccc3[nH]2)c2cc(F)ccc2O)cc(-c2ccc(N3CCC(N)CC3)cc2)c1 [Example 4, (R)-4′-(4-aminopiperidine-1-yl)-5-(tert-butyl)-N-((5-fluoro-2-hydroxyphenyl)(1H-indole-2-yl)methyl)-[1,1′-biphenyl]-3-carboxamide]	> 200	> 200
Cc1cc(C(=O)N[C@@H](c2cc3ccccc3[nH]2)c2cc(F)ccc2O)cc(-c2ccc(N3CCC(N)CC3)cn2)c1 [Example 17, (R)-3-(5-(4-aminopiperidine-1-yl)pyridine-2-yl)-N-((5-fluoro-2-hydroxyphenyl)(1H-indole-2-yl)methyl)-5-methylbenzamide]	< 30	< 30
Cc1cc(C(=O)N[C@H](c2cc3ccccc3[nH]2)c2cc(F)ccc2O)cc(-c2ccc(N3CCC(N)CC3)cc2)c1 [Example 31, (S)-4′-(4-aminopiperidine-1-yl)-N-((5-fluoro-2-hydroxyphenyl)(1H-indole-2-yl)methyl)-5-methyl-[1, l′-biphenyl]-3-carboxamide]	> 200	> 200
CSc1cc(C(=O)N[C@@H](c2cc3ccccc3[nH]2)c2cc(F)ccc2O)cc(-c2ccc(N3CCC(N)CC3)cc2)c1 [Example 8, 4′-(4-aminopiperidine-1-yl)-N-((5-fluoro-2-hydroxyphenyl)(1H-indole-2-yl)methyl)-5-(methylthio)-[1,1′-biphenyl]-3-carboxamide]	> 200	> 200
Cc1cc(C(=O)N[C@@H](c2cc3ccccc3[nH]2)c2cc(F)ccc2O)cc(-c2cnc(N3CCC(N)CC3)nc2)c1 [Example 16, (R)-3-(2-(4-aminopiperidine-1-yl)pyrimidine-5-yl)-N-((5-fluoro-2-hydroxyphenyl)(1H-indole-2-yl)methyl)-5-methylbenzamide]	30 to 200	< 30
Cc1cc(C(=O)N[C@@H](c2cc3ccc(Cl)cc3[nH]2)c2cc(F)ccc2O)cc(-c2ccc(N3CCC(N)CC3)cc2)c1 [Example 27, (R)-4′-(4-aminopiperidine-1-yl)-N-((6-chloro-1H-indole-2-yl)(5-fluoro-2-hydroxyphenyl)methyl)-5-methyl-[1,1′-biphenyl]-3-carboxamide]	> 200	30 to 200
COc1ccc(F)cc1[C@@H](NC(=O)c1cc(OC(F)(F)F)cc(-c2ccc(N3CCC(N)CC3)cc2)c1)c1cc2ccccc2[nH]1 [Example 12, (R)-4′-(4-aminopiperidine-1-yl)-N-((5-fluoro-2-methoxyphenyl)(1H-indole-2-yl)methyl)-5-(trifluoromethoxy)-[1,1′-biphenyl]-3-carboxamide]	> 200	30 to 200
Cc1cc(C(=O)N[C@@H](c2cc3ccccc3[nH]2)c2cc(F)ccc2O)cc(-c2ncc(N3CCN(C4CCN(C)CC4)CC3)cn2)c1 [Example 41, N—[(R)-(5-fluoro-2-hydroxy-phenyl)-(1H-indole-2-yl)methyl]-3-methyl-5-[5-[4-(1-methyl-4-piperidyl)piperazine-1-yl]pyrimidine-2-yl]benzamide]	< 30	< 30
CCN(CC)C1CCN(c2cnc(-c3cc(C)cc(C(=O)N[C@@H](c4cc5ccccc5[nH]4)c4cc(F)ccc4O)c3)nc2)CC1 [Example 45, (R)-3-(5-(4-(diethylamino)piperidine-1-yl)pyrimidine-2-yl)-N-((5-fluoro-2-hydroxyphenyl)(1H-indole-2-yl)methyl)-5-methylbenzamide]	< 30	< 30
Cc1cc(C(=O)N[C@@H](c2cc3ccccc3[nH]2)c2cc(F)ccc2O)cc(-c2ccc(N3CCC(N)CC3)cc2F)c1 [Example 24, (R)-4′-(4-aminopiperidine-1-yl)-2′-fluoro-N-((5-fluoro-2-hydroxyphenyl)(1H-indole-2-yl)methyl)-5-methyl-[1,1′-biphenyl]-3-carboxamide]	< 30	< 30
COc1cc(C(=O)N[C@@H](c2cc3ccccc3[nH]2)c2cc(F)ccc2O)cc(-c2ccc(N3CCC(N)CC3)cc2)c1 [Example 3, (R)-4′-(4-aminopiperidine-1-yl)-N-((5-fluoro-2-hydroxyphenyl)(1H-indole-2-yl)methyl)-5-methoxy-[1,1′-biphenyl]-3-carboxamide]	> 200	> 200
NC1CCN(c2ccc(-c3cc(C(=O)N[C@@H](c4cc5ccccc5[nH]4)c4cc(F)ccc4O)cc(C(F)(F)F)c3)cc2)CC1 [Example 6, 4′-(4-aminopiperidine-1-yl)-N-((5-fluoro-2-hydroxyphenyl)(1H-indole-2-yl)methyl)-5-(trifluoromethyl)-[1,1′-biphenyl]-3-carboxamide]	> 200	> 200
N#Cc1cc(C(=O)N[C@@H](c2cc3ccccc3[nH]2)c2cc(F)ccc2O)cc(-c2ccc(N3CCC(N)CC3)cc2)c1 [Example 9, 4′-(4-aminopiperidine-1-yl)-5-cyano-N-((5-fluoro-2-hydroxyphenyl)(1H-indole-2-yl)methyl)-[1,1′-biphenyl]-3-carboxamide]	> 200	> 200
Cc1cc(C(=O)N[C@@H](c2cc3ccccc3[nH]2)c2cc(F)ccc2O)cc(-c2ccc(N3CCC(N)CC3)nn2)c1 [Example 20, (R)-3-(6-(4-aminopiperidine-1-yl)pyridazine-3-yl)-N-((5-fluoro-2-hydroxyphenyl)(1H-indole-2-yl)methyl)-5-methylbenzamide]	> 200	30 to 200
Cc1cc(C(=O)N[C@@H](c2cc3ccccc3[nH]2)c2cc(F)ccc2O)cc(-c2cnc(N3CCC(N)CC3)cn2)c1 [Example 18, (R)-3-(5-(4-aminopiperidine-1-yl)pyrazine-2-yl)-N-((5-fluoro-2-hydroxyphenyl)(1H-indole-2-yl)methyl)-5-methylbenzamide]	< 30	< 30
NC1CCN(c2ccc(-c3cc(F)cc(C(=O)N[C@@H](c4cc5ccccc5[nH]4)c4cc(F)ccc4O)c3)cc2)CC1 [Example 5, (R)-4′-(4-aminopiperidine-1-yl)-5-fluoro-N-((5-fluoro-2-hydroxyphenyl)(1H-indole-2-yl)methyl)-[1,1′-biphenyl]-3-carboxamide]	> 200	< 30
CCCC1CCN(c2cnc(-c3cc(C)cc(C(=O)N[C@@H](c4cc5ccccc5[nH]4)c4cc(F)ccc4O)c3)nc2)CC1 [Example 38, N—[(R)-(5-fluoro-2-hydroxy-phenyl)-(1H-indole-2-yl)methyl]-3-methyl-5-[5-(4-propyl-1-piperidyl)pyrimidine-2-yl]benzamide]	> 200	> 200
Cc1cc(C(=O)N[C@@H](c2cc3ccccc3[nH]2)c2cc(F)ccc2O)cc(-c2ncc(N3CCNCC3)cn2)c1 [Example 36, (R)—N-((5-fluoro-2-hydroxyphenyl)(1H-indole-2-yl)methyl)-3-methyl-5-(5-(piperazine-1-yl)pyrimidine-2-yl)benzamide]	< 30	< 30
Cc1cc(C(=O)N[C@@H](c2cc3ccccc3[nH]2)c2cc(F)ccc2O)cc(-c2cnc(N3CCC(N)CC3)nc2C)c1 [Example 34, (R)-3-(2-(4-aminopiperidine-1-yl)-4-methylpyrimidine-5-yl)-N-((5-fluoro-2-hydroxyphenyl)(1H-indole-2-yl)methyl)-5-methylbenzamide]	30 to 200	< 30
